Test results reported in patent publication US20080227798A1, “POLYMORPHS OF SUCCINATE SALT OF 2-[6-(3-AMINO-PIPERIDIN-1-YL)-3-METHYL-2,4-DIOXO-3,4-DIHYDRO-2H-PYRIMIDIN-1-YLMETHY]-4-FLUOR-BENZONITRILE AND METHODS OF USE THEREFOR” (priority 2006, published 2008).
“Also recorded” adds a separate entry of the source.

What was measured:
Assay type in all cases: physicochemical
[1] = Thermogravimetric analysis (TGA); conditions: from 25° C. to 95° C.
Procedure: Thermogravimetric (TG) analyses were performed using a TA Instruments 2950 thermogravimetric analyzer. Each sample was placed in an aluminum sample pan and inserted into the TG furnace. The furnace was first equilibrated at 25° C., then heated under nitrogen at a rate of 10° C./min, up to a final temperature of 350° C. Nickel and Alumel™ were used as the calibration standards.

[2] = Moisture sorption/desorption analysis; conditions: for form by XRPD of the material remaining after the moisture sorption/desorption analysis: post moisture sorption/desorption
Procedure: Moisture sorption/desorption data were collected on a VTI SGA-100 Vapor Sorption Analyzer. Sorption and desorption data were collected over a range of 5% to 95% relative humidity (RH) at 10% RH intervals under a nitrogen purge. Samples were not dried prior to analysis. Equilibrium criteria used for analysis were less than 0.0100% weight change in 5 minutes, with a maximum equilibration time of 3 hours if the weight criterion was not met. Data were not corrected for the initial moisture content of the samples. NaCl and PVP were used as calibration standards. Moisture sorption and desorption study was conducted on a sample of Form A+B. The sample was prepared by crashed cooling crystallization (Example 3, section A.6) of the polymorphic forms from a ethanol:water (95:5) solution of Compound I. The moisture sorption and desorption study was conducted according to the procedures outlined in Example 3, section B.10. The data collected is plotted in FIG. 13 and summarized in Table L. Moisture sorption and desorption study was conducted on a sample of Form E. The sample was prepared by solvent/antisolvent crystallization (Example 3, section A.7) by the addition of acetonitrile to Compound I in water. The moisture sorption and desorption study was conducted according to the procedures outlined in Example 3, section B.10. The data collected is plotted in FIG. 23 and summarized in Table M. Moisture sorption and desorption study was conducted on a sample of Amorphous Form. The sample was prepared by lyophilolization of a solution of Compound I in water (Example 3, section A.9). The moisture sorption and desorption study was conducted according to the procedures outlined in Example 3, section B.10.

[3] = Vapor stress of amorphous solid
Procedure: Amorphous Compound I was placed in acetone, ethanol, and water vapor chambers for up to eight days. The solids were collected and analyzed by XRPD for form identification.
Solids of Amorphous Form of Compound I were stressed in acetone and ethanol vapor stress chambers for 4 days. Other aliquots of the solids were stressed in a water vapor chamber for 4 days and 8 days. The remaining solids were analyzed by XRPD.

[4] = Approximate solubility of Compound I in different solvents; conditions: for solubility: thermodynamic from solid, ambient temperature, approximate
Procedure: Compound I prepared by the method described in Example 1 was used for the solubility study. Solvents and other reagents were of ACS or HPLC grade and were used as received.
A weighed sample (typically about 20-25 mg) of Compound I was treated at ambient temperature with aliquots (typically ≧50 μL) of the test solvent with sonication between additions. Solvents were either reagent or HPLC grade. Solubility was estimated from the total volume of solvent used to obtain a clear solution, as determined by visual inspection. Solubility is expressed as “less than” when dissolution was not observed. If dissolution occurred after the last aliquot was added then solubility is expressed as “greater than or equal to” (≧). The actual solubilities may be greater than determined, due to over addition of solvent (large aliquots) or slow dissolution rates. Approximate solubilities of Compound I are summarized in Table A. The solubility values have been rounded to the nearest whole number and are reported to the nearest mg/mL.

[5] = Relative humidity stressing experiments; conditions: conditions not given
Description: Samples of Compound I were placed uncovered in approximately 58%, 88%, and 97% relative humidity jars. The samples were stored in the jars for approximately 8 days. The solids were collected and analyzed by XRPD for form identification. […] An aliquot of a mixture of Form A+B was stressed at 88% relative humidity for 23 days. Amorphous Form was stressed at 58% and 88% relative humidity for 23 days.

Compound: Cn1c(=O)cc(N2CCC[C@@H](N)C2)n(Cc2ccccc2C#N)c1=O.O=C(O)CCC(=O)O [Amorphous Form]
- TGA weight loss [1]: 1.8%
- TGA weight loss ([1]; lyophilized from Compound I in water): 1.8% weight loss from 25 °C to 95 °C
- weight lost on desorption ([2]; 95-5% RH): Approximately 4.7%
- Weight % chg ([2]; Samp RH 4.97%, 25.05° C., elapsed 1278.0 min (desorption)): −1.269%
- Weight % chg ([2]; Samp RH 5.09%, 25.06° C., elapsed 84.0 min): −0.975%
- Weight % chg ([2]; Samp RH 14.98%, 25.06° C., elapsed 113.6 min (sorption)): −0.589%
- Weight % chg ([2]; Samp RH 15.06%, 25.04° C., elapsed 1243.6 min (desorption)): −1.148%
- Weight % chg ([2]; Samp RH 24.92%, 25.05° C., elapsed 158.4 min (sorption)): −0.166%
- Weight % chg ([2]; Samp RH 25.13%, 25.05° C., elapsed 1210.7 min (desorption)): −1.026%
- Weight % chg ([2]; Samp RH 34.90%, 25.04° C., elapsed 277.5 min (sorption)): 0.841%
- Weight % chg ([2]; Samp RH 35.06%, 25.05° C., elapsed 1179.2 min (desorption)): −0.912%
- Weight % chg ([2]; Samp RH 41.98%, 25.04° C., elapsed 0.1 min (start)): 0.000%
- Weight % chg ([2]; Samp RH 45.05%, 25.03° C., elapsed 392.7 min (sorption)): 2.393%
- Weight % chg ([2]; Samp RH 45.07%, 25.05° C., elapsed 1144.4 min (desorption)): −0.776%
- Weight % chg ([2]; Samp RH 54.99%, 25.02° C., elapsed 470.8 min (sorption)): 4.540%
- Weight % chg ([2]; Samp RH 55.11%, 25.04° C., elapsed 1092.3 min (desorption)): −0.545%
- Weight % chg ([2]; Samp RH 64.90%, 25.02° C., elapsed 508.0 min (sorption)): 6.988%
- Weight % chg ([2]; Samp RH 65.07%, 25.03° C., elapsed 1039.8 min (desorption)): −0.280%
- Weight % chg ([2]; Samp RH 74.82%, 25.02° C., elapsed 654.6 min (sorption)): 0.437%
- Weight % chg ([2]; Samp RH 74.92%, 25.02° C., elapsed 957.5 min (desorption)): 0.176%
- Weight % chg ([2]; Samp RH 84.78%, 25.03° C., elapsed 703.8 min (sorption)): 0.922%
- Weight % chg ([2]; Samp RH 85.31%, 25.02° C., elapsed 877.9 min (desorption)): 1.010%
- Weight % chg ([2]; Samp RH 94.59%, 25.02° C., elapsed 806.9 min (sorption)): 3.400%
- Post MB XRPD (form after moisture sorption/desorption analysis) ([2]; after moisture sorption/desorption): Crystalline, Form A (FIG. 31)
- weight lost on sorption ([2]; at 75% relative humidity): Approximately 7%
- weight loss on equilibration at 5% relative humidity ([2]; equilibration at 5% RH): 1.0%
- weight lost on equilibration ([2]; equilibration at 5% RH): 1.0% weight lost on equilibration at 5% RH,
- weight gain ([2]; from 5-95% RH): 4.4%
- weight gain on sorption ([2]; from 75% to 95% relative humidity): 4.4%
- weight lost ([2]; from 95-5% RH): 4.7%
- form by XRPD of the material remaining after the moisture sorption/desorption analysis [2]: Form A; also recorded: low crystallinity A
- weight gained on sorption ([2]; up to 65% relative humidity): Approximately 8%

Compound: Cn1c(=O)cc(N2CCC[C@@H](N)C2)n(Cc2ccccc2C#N)c1=O.O=C(O)CCC(=O)O [Amorphous Solid of Compound I]
- Color/morphology after vapor stress ([3]; Acetone vapor, 4 days): off white, irregular
- Color/morphology after vapor stress ([3]; EtOH vapor, 4 days): off white, irregular
- Color/morphology after vapor stress ([3]; Water vapor, 4 days): off white, irregular,
- Form after vapor stress (XRPD) ([3]; Water vapor, 4 days): A + D
- Color/morphology after vapor stress ([3]; Water vapor, 8 days): white, irregular,
- Form after vapor stress (XRPD) ([3]; Water vapor, 8 days): low

Compound: Cn1c(=O)cc(N2CCC[C@@H](N)C2)n(Cc2cc(F)ccc2C#N)c1=O [Compound I, 2-[6-(3-amino-piperidin-1-yl)-3-methyl-2,4-dioxo-3,4-dihydro-2H-pyrimidin-1-ylmethyl]-4-fluoro-benzonitrile succinate]
- solubility ([4]; 2-propanol:water (88:12), organic solvent or mixture, IPA:H2O (88:12)): 11000 µg/mL
- solubility ([4]; acetonitrile:water (85:15), organic solvent or mixture, ACN:H2O (85:15)): 101000 µg/mL
- solubility ([4]; diethyl ether, organic solvent or mixture, di-Ethyl ether): < 1000 µg/mL
- solubility ([4]; ethanol:water (95:5), organic solvent or mixture, EtOH:H2O (95:5)): 5000 µg/mL
- Solubility (in words) ([4]; most solvents, except DMF, methanol, TFE, water and water:solvent mixtures): Poor solubility
- solubility ([4]; organic solvent or mixture, 1,4-Dioxane): < 1000 µg/mL
- solubility ([4]; organic solvent or mixture, 2-Propanol (IPA)): < 1000 µg/mL
- solubility ([4]; organic solvent or mixture, Acetone): 2000 µg/mL
- solubility ([4]; organic solvent or mixture, Acetonitrile (ACN)): < 1000 µg/mL
- solubility ([4]; organic solvent or mixture, Dichloromethane (DCM)): < 1000 µg/mL
- solubility ([4]; organic solvent or mixture, Dimethyl Formamide (DMF)): 68000 µg/mL
- solubility ([4]; organic solvent or mixture, Ethanol (EtOH)): 2000 µg/mL
- solubility ([4]; organic solvent or mixture, Ethyl Acetate (EtOAc)): < 1000 µg/mL
- solubility ([4]; organic solvent or mixture, Hexanes): < 1000 µg/mL
- solubility ([4]; organic solvent or mixture, Methanol (MeOH)): 20000 µg/mL
- solubility ([4]; organic solvent or mixture, Tetrahydrofuran (THF)): < 1000 µg/mL
- solubility ([4]; organic solvent or mixture, Toluene): < 1000 µg/mL
- solubility ([4]; organic solvent or mixture, Trifluoroethanol (TFE)): > 200000 µg/mL
- solubility ([4]; Water (H2O)): 51000 µg/mL

Compound: Cn1c(=O)cc(N2CCC[C@@H](N)C2)n(Cc2cc(F)ccc2C#N)c1=O.O=C(O)CCC(=O)O [Form B]
- form change in additional relative humidity stressing studies [5]: converted to Form A

Compound: Cn1c(=O)cc(N2CCC[C@@H](N)C2)n(Cc2cc(F)ccc2C#N)c1=O.O=C(O)CCC(=O)O [Form E]
- Weight % chg ([2]; Samp RH 5.03%, 24.77° C., elapsed 730.6 min (desorption)): −1.322%
- Weight % chg ([2]; Samp RH 5.23%, 24.77° C., elapsed 138.3 min): −1.268%
- Weight % chg ([2]; Samp RH 14.89%, 24.78° C., elapsed 154.5 min (sorption)): −1.187%
- Weight % chg ([2]; Samp RH 14.94%, 24.79° C., elapsed 557.2 min (desorption)): −0.102%
- Weight % chg ([2]; Samp RH 24.87%, 24.78° C., elapsed 170.5 min (sorption)): −1.074%
- Weight % chg ([2]; Samp RH 25.02%, 24.79° C., elapsed 543.5 min (desorption)): −0.013%
- Weight % chg ([2]; Samp RH 34.83%, 24.78° C., elapsed 184.5 min (sorption)): −0.947%
- Weight % chg ([2]; Samp RH 35.13%, 24.79° C., elapsed 526.0 min (desorption)): 0.112%
- Weight % chg ([2]; Samp RH 35.22%, 24.77° C., elapsed 0.1 min (start)): 0.000%
- Weight % chg ([2]; Samp RH 44.87%, 24.78° C., elapsed 203.4 min (sorption)): −0.755%
- Weight % chg ([2]; Samp RH 45.03%, 24.78° C., elapsed 512.2 min (desorption)): 0.236%
- Weight % chg ([2]; Samp RH 55.04%, 24.79° C., elapsed 253.5 min (sorption)): −0.223%
- Weight % chg ([2]; Samp RH 55.05%, 24.78° C., elapsed 499.6 min (desorption)): 0.398%
- Weight % chg ([2]; Samp RH 65.05%, 24.78° C., elapsed 281.1 min (sorption)): 0.325%
- Weight % chg ([2]; Samp RH 65.16%, 24.78° C., elapsed 487.4 min (desorption)): 0.616%
- Weight % chg ([2]; Samp RH 74.87%, 24.78° C., elapsed 301.2 min (sorption)): 0.608%
- Weight % chg ([2]; Samp RH 75.25%, 24.78° C., elapsed 471.9 min (desorption)): 0.949%
- Weight % chg ([2]; Samp RH 84.67%, 24.79° C., elapsed 322.2 min (sorption)): 1.410%
- Weight % chg ([2]; Samp RH 85.18%, 24.77° C., elapsed 452.4 min (desorption)): 1.632%
- Weight % chg ([2]; Samp RH 94.73%, 24.78° C., elapsed 415.8 min (sorption)): 4.216%
- weight loss on equilibration at 5% relative humidity ([2]; equilibration at 5% RH): 1.3%
- form by XRPD of the material remaining after the moisture sorption/desorption analysis [2]: a mixture of Form A and Form E; also recorded: A + small quantity of E
